US20090156629A1, “INDENOISOQUINOLINE-RELEASABLE POLYMER CONJUGATES” (Enzon Pharmaceuticals, Inc., priority 2006, published 2009)

Assays:
[1] = system: standard panel of 12 tumor cell lines (NCI-H23, NCI-H522, MDA-MB-231, MDA-MB-435, SW-620, COLO 205, LOX, UACC-62, OVCAR-3, OVCAR-5, U251 and SF-295); assay: In vivo hollow fiber assay (HFA); set-up: species or system mice; details: out of 48; NSC 706744 at 100 and 150 mg/kg; conjugates at 12 and 18 (20k) or 9 and 12 (40k) mg/kg/dose IndQ equivalent
Procedure: A standard panel of 12 tumor cell lines is used for routine hollow fiber screening. These include NCI-H23, NCI-H522, MDA-MB-231, MDA-MB-435, SW-620, COLO 205, LOX, UACC-62, OVCAR-3, OVCAR-5, U251 and SF-295. A total of 3 different tumor lines are prepared for each experiment so that each mouse receives 3 intraperitoneal implants (1 of each tumor line) and 3 subcutaneous implants (1 of each tumor line). Each compound tested is administered by intraperitoneal injection at 2 dose levels. The percent net growth for each cell line in each treatment group is calculated and compared to the percent net growth in the vehicle treated controls. A 50% or greater reduction in percent net growth in the treated samples compared to the vehicle control samples is considered a positive result. […] A compound is considered for xenograft testing if it has a combined ip+sc score of 20 or greater, a sc score of 8 or greater, or produces cell death of any cell line at either dose level evaluated.
The in vivo hollow fiber assay (HFA) in mice was conducted per previously published methods using the 20 k ΔPEG-RNL9-IndQ at equivalent IndQ active doses of 12 and 18 mg/kg/dose and 40 k ΔPEG-RNL9-IndQ at equivalent IndQ active doses of 9 and 12 mg/kg/dose. For comparison, NSC 706744 (native or unmodified) was evaluated at doses of 100 and 150 mg/kg/dose which are the highest doses routinely tested.

[2] = system: standard panel of 12 tumor cell lines (NCI-H23, NCI-H522, MDA-MB-231, MDA-MB-435, SW-620, COLO 205, LOX, UACC-62, OVCAR-3, OVCAR-5, U251 and SF-295); details: historic data for comparison; cited from earlier work

SMILES	score in IP fibers [1]	score in SC fibers [1]	Activity [2]	Cell Death [2]	IP + SC score [2]	IP score [2]	SC score [2]
COc1cc2c3c(n(CCCNCCO)c(=O)c2cc1OC)-c1cc2c(cc1C3=O)OCO2 [NSC 706744]	6/48	6/48					
CC(=O)O[C@H]1C(=O)[C@@]2(C)[C@H]([C@H](OC(=O)c3ccccc3)[C@]3(O)C[C@H](OC(=O)[C@H](O)[C@@H](NC(=O)c4ccccc4)c4ccccc4)C(C)=C1C3(C)C)[C@]1(OC(C)=O)CO[C@@H]1C[C@@H]2O [Taxol]			Active	Yes	42	36	6
